According to ChEMBL document CHEMBL1201862, “PubChem BioAssay data set” (2004):
Activity calls are given as the source filed them.

Experiments:
Melanocortin receptor 4 = Melanocortin receptor 4 (Homo sapiens, UniProt P32245); assay: MC4R antagonist potency on cAMP, dose response, cell-based, TR-FRET, biased antagonists (AID 602298); format: functional;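 further: antagonist potency against agonist-stimulated cAMP production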
[1] = nonselective inhibitors of cellular cAMP signaling, dose response, counter-screen for MC4R biased antagonist project, cell-based, TR-FRET cAMP detection (AID 602305); format: functional;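 further: U2OS cells stimulated with forskolin near its EC80 as the cAMP inducer; potency is for inhibition of forskolin-stimulated cAMP signaling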
HEK293 [2] = assay: NOD1 signaling inhibitors, primary screen, cell-based, luminescence, uHTS (AID 1578); format: functional; settings: Homo sapiens
HEK293 [3] = assay: cells; format: functional, cell-based; settings: Homo sapiens
[4] = molecular target: T1, Heat shock factor protein 1 (Mus musculus, UniProt P38532); assay: inhibition of MG132-induced HSE-luciferase signal, confirmation, cell-based, NIH3T3, luminescence, dose retest (AID 2382); format: functional;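 further: NIH3T3 fibroblasts with HSF1-driven luciferase reporter stressed by proteasome inhibitor MG132; luminescence from HSF1-driven luciferase expression after 8 hours of MG132 stress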
T1 sequence (P38532 whole entry): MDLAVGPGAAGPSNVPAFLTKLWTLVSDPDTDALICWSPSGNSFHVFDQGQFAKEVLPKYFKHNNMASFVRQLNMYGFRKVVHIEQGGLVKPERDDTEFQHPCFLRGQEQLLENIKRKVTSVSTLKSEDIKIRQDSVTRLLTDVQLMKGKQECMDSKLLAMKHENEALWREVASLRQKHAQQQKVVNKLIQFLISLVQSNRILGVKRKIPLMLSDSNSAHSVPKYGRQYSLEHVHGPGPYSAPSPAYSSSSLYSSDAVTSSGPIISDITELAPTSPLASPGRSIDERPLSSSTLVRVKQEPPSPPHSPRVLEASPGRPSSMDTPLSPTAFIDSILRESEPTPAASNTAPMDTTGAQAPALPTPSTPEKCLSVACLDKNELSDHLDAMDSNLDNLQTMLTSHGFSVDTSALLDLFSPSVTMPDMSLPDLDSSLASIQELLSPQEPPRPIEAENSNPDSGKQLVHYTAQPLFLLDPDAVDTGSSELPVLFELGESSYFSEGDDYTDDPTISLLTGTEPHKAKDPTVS

HEK293 [5] = assay: cells; format: functional, cell-based; settings: Homo sapiens; remark: listed apart in the source
[6] = molecular target: Nucleotide-binding oligomerization domain-containing protein 2 (Homo sapiens, UniProt Q9HC29); assay: NOD2 signaling inhibitors, cell-based, luminescence, uHTS, HEK293 (AID 1566); format: functional
HEK293 [7] = assay: NOD2 signaling inhibitors in MDP-stimulated cells, cell-based, uHTS, luminescence (AID 2001); format: functional; settings: Homo sapiens
[8] = growth suppression of PTEN-null colon cells, dose response, cell-based, HCT116 PTEN knockout (AID 1047); format: functional;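 further: HCT116 colon tumor cells with PTEN knocked out; cells exposed to compound for 60 hours before readout; potency for loss of cell viability measured by luminescence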
[9] = growth suppression of beta-catenin-knockout colon cells, dose response, cell-based, HCT116, human colon tumor (AID 1045); format: functional;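 further: HCT116 colon tumor cells with beta catenin knocked out; cells exposed to compound for 60 hours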
Fatty acid synthase = Fatty acid synthase (Homo sapiens, UniProt P49327); assay: FAS thioesterase domain inhibitors, dose response, biochemical, endpoint fluorescence intensity, uHTS hits (AID 624327); format: functional;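 further: fluorescence from hydrolysis of an O-methyl fluorescein acyl ester substrate by the enzyme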
Paired box protein Pax-8 = Paired box protein Pax-8 (Homo sapiens, UniProt Q06710); assay: inhibitors of PAX8-driven TPO luciferase reporter, dose response, RMG-I cells, cherry-pick (AID 687027); format: functional, cell-based;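 further: luciferase reporter driven by Pax8 target thyroperoxidase promoter measured by SteadyGlo luminescence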
[10] = molecular target: T2, DNA repair protein RAD52 homolog (Homo sapiens, UniProt P43351); format: functional, biochemical
T2 sequence (P43351 whole entry): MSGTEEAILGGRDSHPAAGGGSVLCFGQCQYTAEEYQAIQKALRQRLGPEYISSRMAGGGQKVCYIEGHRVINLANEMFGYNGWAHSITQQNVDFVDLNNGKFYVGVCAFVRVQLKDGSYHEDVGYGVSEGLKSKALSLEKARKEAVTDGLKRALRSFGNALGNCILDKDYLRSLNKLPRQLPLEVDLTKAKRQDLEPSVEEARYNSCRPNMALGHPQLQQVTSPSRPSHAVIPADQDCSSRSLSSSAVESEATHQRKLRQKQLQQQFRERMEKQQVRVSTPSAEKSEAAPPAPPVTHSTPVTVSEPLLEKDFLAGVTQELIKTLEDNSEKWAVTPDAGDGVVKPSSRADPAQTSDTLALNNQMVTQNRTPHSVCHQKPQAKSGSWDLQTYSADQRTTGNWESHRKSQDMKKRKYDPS

Fatty acid synthase, sequence (P49327 whole entry, the tested form may be a part): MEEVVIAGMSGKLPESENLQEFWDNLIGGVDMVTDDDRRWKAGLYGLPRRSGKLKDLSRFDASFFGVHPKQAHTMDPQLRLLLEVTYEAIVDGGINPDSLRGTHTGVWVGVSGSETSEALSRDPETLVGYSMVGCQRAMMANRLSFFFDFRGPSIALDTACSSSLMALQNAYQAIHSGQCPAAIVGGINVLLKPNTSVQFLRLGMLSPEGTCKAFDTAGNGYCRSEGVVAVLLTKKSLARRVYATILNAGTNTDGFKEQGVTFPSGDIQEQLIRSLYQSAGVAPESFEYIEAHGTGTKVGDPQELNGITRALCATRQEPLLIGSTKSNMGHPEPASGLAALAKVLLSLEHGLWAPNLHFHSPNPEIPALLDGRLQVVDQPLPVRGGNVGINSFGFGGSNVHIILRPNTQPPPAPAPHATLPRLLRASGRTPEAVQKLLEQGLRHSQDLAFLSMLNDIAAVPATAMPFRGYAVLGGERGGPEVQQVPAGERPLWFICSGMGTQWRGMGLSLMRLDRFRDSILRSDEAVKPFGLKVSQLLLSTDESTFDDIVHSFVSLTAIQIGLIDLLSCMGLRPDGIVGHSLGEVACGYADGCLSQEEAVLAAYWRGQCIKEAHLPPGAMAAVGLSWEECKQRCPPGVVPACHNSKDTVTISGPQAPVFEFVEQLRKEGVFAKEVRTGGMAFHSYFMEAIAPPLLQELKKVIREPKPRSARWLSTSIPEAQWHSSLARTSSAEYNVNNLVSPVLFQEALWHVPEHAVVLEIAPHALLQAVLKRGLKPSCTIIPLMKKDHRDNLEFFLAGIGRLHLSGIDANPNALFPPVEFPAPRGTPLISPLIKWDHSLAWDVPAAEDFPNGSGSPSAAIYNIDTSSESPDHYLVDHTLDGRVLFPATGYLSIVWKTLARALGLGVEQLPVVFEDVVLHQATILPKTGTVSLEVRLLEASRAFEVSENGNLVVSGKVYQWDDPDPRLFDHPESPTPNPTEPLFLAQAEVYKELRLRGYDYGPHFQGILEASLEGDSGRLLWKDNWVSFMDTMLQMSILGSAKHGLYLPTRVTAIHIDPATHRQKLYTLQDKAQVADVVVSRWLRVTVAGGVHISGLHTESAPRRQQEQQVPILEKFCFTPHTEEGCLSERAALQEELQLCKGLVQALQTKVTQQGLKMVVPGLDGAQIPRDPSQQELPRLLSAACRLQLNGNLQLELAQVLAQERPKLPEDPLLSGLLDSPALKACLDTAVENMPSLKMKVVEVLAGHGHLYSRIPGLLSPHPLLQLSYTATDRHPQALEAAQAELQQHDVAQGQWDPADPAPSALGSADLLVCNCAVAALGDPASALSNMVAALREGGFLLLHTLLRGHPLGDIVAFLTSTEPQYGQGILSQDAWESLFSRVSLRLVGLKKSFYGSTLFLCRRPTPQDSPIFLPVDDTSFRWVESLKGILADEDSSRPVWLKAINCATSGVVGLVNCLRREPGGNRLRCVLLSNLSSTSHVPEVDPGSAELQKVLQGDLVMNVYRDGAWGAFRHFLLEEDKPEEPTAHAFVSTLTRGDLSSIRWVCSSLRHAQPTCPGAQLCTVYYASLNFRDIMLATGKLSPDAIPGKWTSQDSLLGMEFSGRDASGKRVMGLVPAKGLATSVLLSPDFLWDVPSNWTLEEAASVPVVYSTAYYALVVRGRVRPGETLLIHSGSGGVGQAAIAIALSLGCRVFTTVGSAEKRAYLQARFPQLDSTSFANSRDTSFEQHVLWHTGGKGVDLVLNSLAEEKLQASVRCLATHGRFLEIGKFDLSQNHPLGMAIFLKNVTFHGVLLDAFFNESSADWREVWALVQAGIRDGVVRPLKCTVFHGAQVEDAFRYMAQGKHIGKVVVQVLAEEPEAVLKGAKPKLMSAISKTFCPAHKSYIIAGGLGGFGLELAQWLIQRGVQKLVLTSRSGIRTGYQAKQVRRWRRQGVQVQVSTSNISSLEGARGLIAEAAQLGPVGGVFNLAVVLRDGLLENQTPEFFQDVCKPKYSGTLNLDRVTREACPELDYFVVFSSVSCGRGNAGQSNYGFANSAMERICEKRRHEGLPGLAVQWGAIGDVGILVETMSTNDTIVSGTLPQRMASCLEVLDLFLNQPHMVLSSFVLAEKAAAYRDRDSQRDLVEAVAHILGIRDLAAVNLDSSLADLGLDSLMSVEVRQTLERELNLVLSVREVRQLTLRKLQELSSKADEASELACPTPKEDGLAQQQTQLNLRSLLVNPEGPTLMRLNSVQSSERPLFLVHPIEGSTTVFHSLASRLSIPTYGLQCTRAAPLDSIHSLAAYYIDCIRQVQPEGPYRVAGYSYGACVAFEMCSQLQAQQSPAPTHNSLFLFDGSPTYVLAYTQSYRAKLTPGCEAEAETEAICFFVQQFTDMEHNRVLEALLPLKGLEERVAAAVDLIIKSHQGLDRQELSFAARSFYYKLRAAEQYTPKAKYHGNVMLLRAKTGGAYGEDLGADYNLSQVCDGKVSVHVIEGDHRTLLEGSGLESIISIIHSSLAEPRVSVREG
Melanocortin receptor 4, sequence (P32245 whole entry): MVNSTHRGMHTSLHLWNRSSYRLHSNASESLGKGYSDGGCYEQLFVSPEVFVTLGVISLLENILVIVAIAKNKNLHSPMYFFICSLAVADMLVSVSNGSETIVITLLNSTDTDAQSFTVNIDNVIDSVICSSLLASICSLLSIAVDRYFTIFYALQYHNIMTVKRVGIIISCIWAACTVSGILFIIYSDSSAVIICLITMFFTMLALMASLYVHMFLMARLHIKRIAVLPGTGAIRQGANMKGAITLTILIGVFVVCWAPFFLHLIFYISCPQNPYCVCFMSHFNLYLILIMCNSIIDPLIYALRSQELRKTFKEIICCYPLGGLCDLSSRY
Paired box protein Pax-8, sequence (Q06710 whole entry): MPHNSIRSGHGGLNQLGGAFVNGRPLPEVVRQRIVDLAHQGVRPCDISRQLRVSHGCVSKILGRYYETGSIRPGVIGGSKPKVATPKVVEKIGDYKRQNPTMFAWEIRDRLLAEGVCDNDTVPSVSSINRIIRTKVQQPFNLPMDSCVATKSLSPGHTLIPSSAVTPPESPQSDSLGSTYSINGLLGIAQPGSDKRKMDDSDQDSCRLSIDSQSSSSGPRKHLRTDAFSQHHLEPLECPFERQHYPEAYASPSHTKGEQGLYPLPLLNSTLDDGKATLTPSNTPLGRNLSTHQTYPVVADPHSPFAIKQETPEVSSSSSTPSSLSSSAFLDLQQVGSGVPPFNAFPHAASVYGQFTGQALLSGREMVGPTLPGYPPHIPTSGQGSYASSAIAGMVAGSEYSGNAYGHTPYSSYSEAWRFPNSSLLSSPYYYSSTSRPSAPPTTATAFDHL
Nucleotide-binding oligomerization domain-containing protein 2, sequence (Q9HC29 whole entry, the tested form may be a part): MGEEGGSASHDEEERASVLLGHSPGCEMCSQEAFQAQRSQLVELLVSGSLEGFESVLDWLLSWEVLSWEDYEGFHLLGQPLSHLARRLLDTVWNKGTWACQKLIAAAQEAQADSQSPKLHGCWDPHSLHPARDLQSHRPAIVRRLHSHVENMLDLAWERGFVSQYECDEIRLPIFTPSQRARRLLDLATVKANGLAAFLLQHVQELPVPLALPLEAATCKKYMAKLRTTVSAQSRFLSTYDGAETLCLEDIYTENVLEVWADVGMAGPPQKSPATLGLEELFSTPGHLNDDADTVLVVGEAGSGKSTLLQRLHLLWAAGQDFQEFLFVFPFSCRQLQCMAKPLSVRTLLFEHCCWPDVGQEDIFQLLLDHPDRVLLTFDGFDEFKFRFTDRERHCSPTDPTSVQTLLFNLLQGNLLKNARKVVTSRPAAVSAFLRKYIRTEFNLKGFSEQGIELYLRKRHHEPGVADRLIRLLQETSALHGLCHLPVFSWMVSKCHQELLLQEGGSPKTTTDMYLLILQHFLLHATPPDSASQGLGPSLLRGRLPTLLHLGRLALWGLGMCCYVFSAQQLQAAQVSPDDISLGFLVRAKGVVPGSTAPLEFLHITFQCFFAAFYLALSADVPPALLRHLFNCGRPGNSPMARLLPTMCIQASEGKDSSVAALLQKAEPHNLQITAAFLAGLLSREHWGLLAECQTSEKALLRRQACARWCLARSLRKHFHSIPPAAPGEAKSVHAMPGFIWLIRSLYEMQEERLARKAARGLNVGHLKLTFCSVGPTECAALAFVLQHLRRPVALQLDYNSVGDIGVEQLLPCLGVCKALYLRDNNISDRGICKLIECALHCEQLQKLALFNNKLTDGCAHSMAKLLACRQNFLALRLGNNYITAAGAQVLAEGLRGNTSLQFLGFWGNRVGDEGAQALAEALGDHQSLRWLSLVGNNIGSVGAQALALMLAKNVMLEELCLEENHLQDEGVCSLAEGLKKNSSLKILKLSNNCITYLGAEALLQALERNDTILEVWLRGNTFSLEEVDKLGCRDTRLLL

CCCCCCCCCC[N+](C)(C)CC/C=C1/c2ccccc2Sc2ccc(Cl)cc21
inactive: IC50 (Melanocortin receptor 4) 31.2 µM | IC50 [1] 22.6 µM

O=C(NCCc1ccccc1)C(c1cccs1)N(C(=O)CCl)c1ccc(Cl)cc1 (stereo not drawn)
active: EC50 (HEK293 [2]) 5.3 µM | IC50 (HEK293 [3]) 4.24 µM | EC50 [4] 1.28 µM | IC50 (HEK293 [5]) 11.5 µM | IC50 (HEK293 [7]) 5.36 µM | EC50 [8] 3.7 µM | EC50 [9] 2.62 µM | IC50 (Fatty acid synthase) 7.91 µM | AC50 (Paired box protein Pax-8) 2.84 µM
inactive: EC50 [6] > 20 µM

COc1cc(/C=C/c2cc[n+](C)cc2)ccc1OCC(=O)Nc1ccc(Cl)c(Cl)c1
active: AC50 [10] 8.27 µM
